Legend:
[1] = system: rat conjunctival goblet cells; experiment: Glycoconjugate secretion from rat conjunctival goblet cells, ELLA (Example 1); assay type: cell-based; details: 2 hours, mean±sem
Experimental: Cells derived from the explants were grown in RPMI 1640 supplemented with 10% fetal bovine serum (FBS) and penicillin (100 U/mL)/streptomycin (100 μg/mL) at 37° C. in a humidified 5% CO2-atmosphere for seventy-two hours. Contaminating nongoblet cells were removed by scraping them from the plate. During this time, goblet cells migrated from the pieces and began to proliferate. After one week, the goblet cells were trypsinized and plated in twenty-four well culture plates with RPMI-1640 media supplemented with 10% FBS.
To measure glycoconjugate secretion, the conjunctival goblet cells were grown to confluence and were serum deprived for two hours before addition of nerve growth factor (NGF), carbachol (Cch), compound D3, compound 3Aa and compound 3Ak for two hours. Compounds D3, 3Aa and 3Ak were administered at concentrations of 30 μm (micromolar), 10 μM, 1 μM and 0.3 μM. The vehicle used to dissolve the compounds, dimethyl sulfoxide (DMSO) was also included. DMSO was used as the basal control for the 30 μM concentration of compound, which was at 0.1% (v/v). The cholinergic agonist carbachol (Cch), added at 100 μM (micromolar), was a positive control for glycoconjugate secretion. The amount of glycoconjugate secreted into the media was measured by enzyme-linked lectin assay (ELLA). The media were collected and analyzed for amount of the lectin-detectable glycoconjugates, including mucins. The amount of secretion was measured by using the lectin UEA-I which is specific for rat conjunctival goblet cell mucins. Biotinylated UEA-I lectin and alkaline phosphatase-labeled streptavidin were used as described in Rios, J. D., et al., “Role of Neurotrophins and Neurotrophin Receptors in Rat Conjunctival Goblet Cell Secretion and Proliferation, Ophthalmology & Visual Science, 48: 1543-1551 (2007), the entire content of which is incorporated herein by reference. The cells were removed and sonicated, and the cell homogenate was analyzed for the total amount of protein by using the Bradford protein assay. […] Glycoconjugate secretion was expressed as the increase (x-fold) over basal.
Data for CGC glycoconjugate secretion and proliferation were expressed as the increase (x-fold) above basal value, which was standardized to 1.0. For example, for the 0.3 μM (micromolar), 1 μM and 10 μM doses, the CGC glycoconjugate secretion and proliferation were expressed as test compound over untreated cells. For the 30 μM dose, the CGC glycoconjugate secretion and proliferation were expressed as test compound over DMSO untreated cells. Results are expressed as the mean±sem.

[2] = system: cultured rat conjunctival goblet cells; experiment: Goblet cell glycoconjugate secretion, ELLA with UEA-1 (Example 2); assay type: cell-based; details: 2 hours; for Glycoconjugate Secretion, Mean ± sem: mean of rats; for Glycoconjugate Secretion, Mean ± SD: mean of rats/plates
Experimental: The culturing of conjunctival goblet cells from explant cultures was as previously described in Shatos, M. et al., “Isolation, Characterization, and Propagation of Rat Conjunctival Goblet Cells In Vitro,” IOVS 42:1455-1464 (2001), the entire content of which is incorporated herein by reference. The tissue was finely minced and individual pieces were anchored onto scored 6-well cultures dishes in 0.5 mL of complete RPMI-1640 (supplemented with 10% FBS, 2 mM glutamine and 100 μg/mL penicillin-streptomycin) and incubated at 37° C. in a humidified 5% CO2-atmosphere. Explant cultures were refed every 2 days. Within a few days, goblet cells migrated from the pieces and began to proliferate. After approximately one week, the tissue plugs were removed and the goblet cells were allowed to grow to confluence. Cells were passaged once by trypsinization of adherent cells with 0.05% trypsin-0.53 mM EDTA (pH 7.4), and plated in 8-well Laboratory Tek chamber slides (histochemistry) or in 96 well (proliferation), 24 well (secretion), or 6 well (western blots) culture plates with complete RPMI-1640 media.
To measure cell secretion, goblet cells were grown to confluence and then serum depleted for 2 hours prior to stimulation. Cells were incubated with compound D3 at 2, 10, and 50 μM, NGF at 0.1, 1 and 10 nM, and PMA at 0.1, 1, and 10 nM in serum-free RPMI for 2 hours. Goblet cell secretion was measured using an enzyme-linked lectin assay (ELLA). Briefly, an aliquot of the cell culture supernatant was transferred to a 96-well polystyrene microtiter plate in triplicate (Corning Life Sciences #2592, Fisher Scientific, Nepean, Ont). A dilution series of bovine submaxillary mucin (BSM) (Sigma, St. Louis, Mo.) was included on each plate as the standard (standard curve data and data showing that detection of BSM is linear between 0.003 and 0.1 μg not shown). The plates were coated by evaporation at 37° C. overnight. After, the plates were washed three times with wash buffer [PBS containing 0.3% BSA, 0.05% Tween-20] then blocked for nonspecific binding with PBS containing 3% BSA and 0.05% Tween-20 at 37° C. for 1 hour. The wells were rinsed three times in wash buffer, and then incubated in 2 μg/mL biotinylated UEA-1 diluted in wash buffer (Vector Labs, Burlingame, Calif.) at 37° C. for 1 hour. The wells were rinsed three times in wash buffer, and then incubated in 1 μg/mL HRP-conjugated neutravidin diluted in wash buffer (Pierce, Rockford, Ill.) at 37° C. for 1 hour. After the wells were rinsed three times in wash buffer, the color development was performed with TMB (Promega, Madison, Wis.) and stopped with 0.5N Sulfuric acid. The absorbance was read at 450 nm on a Benchmark Plus (Biorad). The goblet cells remaining in the culture wells were either scraped in RIPA buffer [1% TritonX-100, 20 mM Tris-HCl pH 7.5, 150 mM NaCl, 1.5 mM MgCl2, 1% Na deoxycholate, 1 mM EGTA, 1 mM EDTA, 0.1% SDS, 10% glycerol, 1 mM Na vanadate, 10 mM Na fluoride, 10 mM Na pyrophosphate, complete mini EDTA-free protease inhibitors (Roche Applied Science, Indianapolis, Ind.)] or 1M Tris-buffer (pH 7.5), collected and sonicated. The amount of protein in the cell homogenate was analyzed using the Bradford protein assay kit using a dilution series of bovine serum albumin (BSA) as the standard (BioRad, Montreal, PQ). Glycoconjugate secretion was normalized to total protein in the homogenate. Data was then expressed as fold increase above basal. […]

p42/44 MAPK = experiment: Activation of p42/44 MAPK in goblet cells, Western blot (Example 2); assay type: cell-based, rat; details: 100 nM, 5 minutes, positive control
Experimental: The activation of p42/44 MAPK was examined using Western blot techniques. Goblet cells were serum starved in serum-free RPMI for 4-6 hrs prior to the addition of PMA (100 nM), NGF (1 or 10 nM), or MIM-D3 (10 or 50 μM) for 5 minutes at 37° C. After, cells were rinsed once in cold PBS, scraped in 100 μL of 1×SDS-PAGE sample buffer [62.5 mM Tris-HCl pH 6.8, 10% glycerol, 2% SDS, 5% β-mercaptoethanol, 0.02 mg/mL bromophenol blue] and sonicated for 20 minutes. The homogenates were centrifuged at 14,900 g for 15 min at 4° C. Proteins in a […] of the supernatant were separated by SDS-PAGE (8% acrylamide gels) and transferred to nitrocellulose membranes. The membranes were blocked for 2 hours in 5% non-fat dried milk in buffer containing 20 mM Tris-HCl, pH 8.0, 150 mM NaCl, and 0.01% Tween-20 (TBST). The blots were then probed with an antibody directed against the phosphorylated form of MAPK1/2 (Calbiochem, San Diego, Calif.) at 0.1 μg/mL in TBST containing 5% BSA overnight at 4° C., followed by a 1 hour incubation in HRP-conjugated secondary anti-mouse antibody (Sigma, St. Louis, Mo.) at room temperature in TBST containing 5% non-fat dried milk. Immunoreactive bands were visualized using the enhanced chemiluminescence method (Perkin Elmer, Waltham, Mass.). The blots were stripped at 55° C. for 30 minutes in stripping buffer [62.5 mM Tris-HCl pH 6.8, 2% SDS, 0.1M β-mercaptoethanol] followed by re-probing with an antibody directed against actin (1:5000 dilution, Sigma, St. Louis, Mo.) in TBST containing 5% non-fat dried milk and incubation in HRP-conjugated secondary anti-rabbit antibody. The immunoreactive bands were digitally scanned on an EPSON scanner and analyzed using NIH ImageJ v1.38x. The amount of phosphorylated MAPK in each sample was standardized to the amount of total actin protein in the sample.
To determine if compound D3 and NGF induced glycoconjugates secretion via activation of the MAPK pathway, cultured goblet cells from 3 independent rats were stimulated by 10 and 50 μM compound D3, 1 and 10 nM NGF or PMA (100 nM, the positive control) for 5 minutes and MAPK activity was measured by western blot analysis. A representative western blot from 3 independent rat goblet cell cultures is shown in FIG. 9, and the quantification is shown in FIG. 10. There was a statistically significant effect of treatment on MAPK activation (P<0.0001). Compound D3 increased MAPK activity above basal by 2.5±0.3 fold at 10 μM and 2.2±0.5 fold at 50 μM and NGF increased MAPK activity by 2.8±0.5 at 1 nM (P<0.05) and 1.7±0.2 at 10 nM.

Structure (SMILES): C[N+](C)(C)CCOC(N)=O [Cch, carbachol, reference compound]
- CGC glycoconjugate secretion ([1]; 100 μM, positive control): 1.3±0.3 fold above basal

Structure (SMILES): CC[C@H](C)[C@@H]1NC(=O)c2cc(N)ccc2OCc2ccc(C(N)=O)cc2NC(=O)[C@H](CCCCN)NC1=O [Compound 3Aa]
- CGC glycoconjugate secretion ([1]; 0.3 μM): 2.1±0.3 fold above basal
- CGC glycoconjugate secretion ([1]; 1 μM): 1.6±0.3 fold above basal
- CGC glycoconjugate secretion ([1]; 10 μM): 1.7±0.4 fold above basal
- CGC glycoconjugate secretion ([1]; 30 μM, over DMSO basal): 2.1±0.7 fold above basal

Structure (SMILES): N=C(N)NCCC[C@@H]1NC(=O)c2cc(N)ccc2OCc2ccc(C(N)=O)cc2NC(=O)CNC1=O [Compound 3Ak]
- CGC glycoconjugate secretion ([1]; 0.3 μM): 1.4±0.3 fold above basal
- CGC glycoconjugate secretion ([1]; 1 μM): 1.1±0.3 fold above basal
- CGC glycoconjugate secretion ([1]; 10 μM): 1.2±0.1 fold above basal
- CGC glycoconjugate secretion ([1]; 30 μM, over DMSO basal): 1.1±0.3 fold above basal

Structure (SMILES): CCCCCCCCCCCCCC(=O)O[C@@H]1[C@@H](C)[C@@]2(O)[C@@H](C=C(CO)C[C@]3(O)C(=O)C(C)=C[C@@H]23)[C@@H]2C(C)(C)[C@]12OC(C)=O [PMA, Phorbol-12-myristate-13-acetate, reference compound]
- Glycoconjugate Secretion ([2]; 0.1 nM, Rat 2): 1.39 Fold increase above basal
- Glycoconjugate Secretion ([2]; 0.1 nM, Rat 2 Plate 2): 3.2 μg glycoconjugate/mg total protein
- Glycoconjugate Secretion ([2]; 0.1 nM, Rat 3): 1.41 Fold increase above basal
- Glycoconjugate Secretion ([2]; 0.1 nM, Rat 3 Plate 1): 6.9 μg glycoconjugate/mg total protein
- Glycoconjugate Secretion, Mean ± sem ([2]; 0.1 nM): 1.40 ± 0.01 Fold increase above basal
- Glycoconjugate Secretion, Mean ± SD ([2]; 0.1 nM): 5.1 ± 2.6 μg glycoconjugate/mg total protein
- Glycoconjugate Secretion ([2]; 1 nM, Rat 1): 1.05 Fold increase above basal
- Glycoconjugate Secretion ([2]; 1 nM, Rat 1 Plate 2): 4.1 μg glycoconjugate/mg total protein
- Glycoconjugate Secretion ([2]; 1 nM, Rat 2): 1.78 Fold increase above basal
- Glycoconjugate Secretion ([2]; 1 nM, Rat 2 Plate 2): 4.1 μg glycoconjugate/mg total protein
- Glycoconjugate Secretion, Mean ± sem ([2]; 1 nM): 1.42 ± 0.37 Fold increase above basal
- Glycoconjugate Secretion, Mean ± SD ([2]; 1 nM): 4.1 ± 0 μg glycoconjugate/mg total protein
- Glycoconjugate Secretion ([2]; 10 nM, Rat 1): 1.56 Fold increase above basal
- Glycoconjugate Secretion ([2]; 10 nM, Rat 1 Plate 1): 11.3 μg glycoconjugate/mg total protein
- Glycoconjugate Secretion ([2]; 10 nM, Rat 1 Plate 2): 3.5 μg glycoconjugate/mg total protein
- Glycoconjugate Secretion ([2]; 10 nM, Rat 2): 1.30 Fold increase above basal
- Glycoconjugate Secretion ([2]; 10 nM, Rat 2 Plate 2): 3.0 μg glycoconjugate/mg total protein
- Glycoconjugate Secretion ([2]; 10 nM, Rat 3): 1.24 Fold increase above basal
- Glycoconjugate Secretion ([2]; 10 nM, Rat 3 Plate 1): 6.1 μg glycoconjugate/mg total protein
- Glycoconjugate Secretion ([2]; 10 nM, Rat 4): 0.85 Fold increase above basal
- Glycoconjugate Secretion ([2]; 10 nM, Rat 4 Plate 2): 8.4 μg glycoconjugate/mg total protein
- Glycoconjugate Secretion, Mean ± sem ([2]; 10 nM): 1.30 ± 0.25 Fold increase above basal
- Glycoconjugate Secretion, Mean ± SD ([2]; 10 nM): 6.5 ± 3.5 μg glycoconjugate/mg total protein
- increase in mucin secretion ([2]; 0.1, 1 and 10 nM, not dose-dependent): ~1.4 fold
- MAPK activity above basal (p42/44 MAPK): 6.1±0.7 fold
